Test results as given in US11414379B2, “SPAK kinase inhibitors as neuroprotective agents” (United States Government as represented by the Department …, priority 2018, dated 2022).

Columns and labels:
pNKCC1 = experiment: IVH-induced phosphorylation in rat choroid plexus, ICV delivery; format: in vivo; conditions: 48 hrs post-IVH, n=3
[1] = test system: Ang II-mediated hypertensive mice, pdMCAO; experiment: Infarct volume and hemispheric swelling after pdMCAO in Ang II-infused mice; format: in vivo, mouse; conditions: Ang II-infused mice (male or female); 2.5 mg/kg i.p. at 3 and 8 hrs after pdMCAO; 24 hrs; vs Veh
Method: C57BL/6J mice received subcutaneous (s.c.) infusion of either saline or AngII via osmotic minipumps (model 1004, Alzet) at a rate of 1000 ng/kg/min for 14 days. BP was measured in awake mice by a tail-cuff method (Kent Scientific) as described previously (Huang et al. (2019) Stroke. 50:1021-1025).
Saline-infused control and Ang II-mediated HTN mice were subsequently underwent permanent occlusion of the distal branches of the middle cerebral artery (pdMCAO) as described previously (Huang et al. (2019) Stroke. 50:1021-1025). Under isoflurane anesthesia, a skin incision at the midline of the neck was made and the left CCA was exposed and occluded by ligation and the skin was sutured. Another skin incision (1 cm) was made between the left eye and the ear using fine operation scissors. The temporal muscle was identified and detached from the skull in its apical and dorsal part without totally removing the muscle by the forceps. The MCA below the transparent skull in the rostral part of the temporal area, dorsal to the retro-orbital sinus was identified. If the MCA bifurcation was not visible (due to an anatomical normal variation), the most rostral vessel was identified. […] The artery, proximal and distal to the MCA bifurcation, was coagulated with the electrocoagulation forceps (in a bipolar mode at 7 W). […] The animal was placed in a cage and monitored for recovery from anesthesia. […]

[2] = test system: SPAK Ser373, NKCC1 Thr203/207/212 and KCCs phosphorylation; experiment: Phosphorylation immunoblot in HEK293 cells; format: cell-based, human
Method: HEK293 (human embryonic kidney 293) cells were cultured on 10-cm-diameter dishes in DMEM supplemented with 10% (v/v) foetal bovine serum, 2 mM L-glutamine, 100 U/ml penicillin and 0.1 mg/ml streptomycin. HEK293 cells were transfected with a mixture of 20 μl of 1 mg/ml polyethylenimine (Polysciences) and 5-10 μg of plasmid DNA as described previously (Durocher et al., 2002). 36 hours post-transfection cells were stimulated with either control isotonic or hypotonic medium for a period of 30 minutes. Cells were lysed in 0.3 mL of ice-cold lysis buffer/dish, lysates were clarified by centrifugation at 4° C. for 15 minutes at 26,000 g and the supernatant aliquots were frozen in liquid nitrogen and stored at −20° C. Protein concentrations were determined using the Bradford method. Cells were treated with the indicated concentrations of the SPAK/OSR1 inhibitors. […] Hypotonic low chloride buffer was 67.5 mM sodium-gluconate, 2.5 mM potassium-gluconate, 0.25 mM CaCl2), 0.25 mM MgCl2, 0.5 mM Na2HPO4, 0.5 mM Na2SO4 and 7.5 mM HEPES (pH 7.5).
The membranes were incubated for 30 min with TBST (Tris-buffered saline, 0.05% Tween-20) containing 5% (w/v) skim milk. […] After repeating the washing steps, signals were detected with enhanced chemiluminescence reagent. […] The densities of bands were measured with ImageJ. […]

AMPK (hum) = experiment: Kinase panel (Dundee profiling); format: biochemical, human
Method: The kinase selectivity of ZT-1a was further assessed using standard radioisotopic enzymatic assays against a panel of 140 recombinant kinases (Dundee profiling, Table 2) (Bain et al. (2007) The Biochemical journal 408, 297-315). ZT-1a at a concentration of 10 μM inhibited only MAPKAP-K2 activity 85±7% compared to DMSO control, representing high kinase selectivity.
Referring to Table 2, ZT-1a was tested at 10 and 1 μM against a panel of 140 recombinant kinases in an enzymatic activity-based assay performed by the International Centre for Kinase Profiling in the MRC Protein Phosphorylation and Ubiquitylation Unit. Values represent % residual kinase activity (mean+/−SEM, n=3). Kinases labelled with an asterick* are inhibited ≥50% by ZT-1a.

RSK2 = RSK2 (Homo sapiens, UniProt P51812); experiment: Kinase panel (Dundee profiling); format: biochemical; conditions: read-out: % residual kinase activity
Sequence of RSK2 (P51812 whole entry, species assumed): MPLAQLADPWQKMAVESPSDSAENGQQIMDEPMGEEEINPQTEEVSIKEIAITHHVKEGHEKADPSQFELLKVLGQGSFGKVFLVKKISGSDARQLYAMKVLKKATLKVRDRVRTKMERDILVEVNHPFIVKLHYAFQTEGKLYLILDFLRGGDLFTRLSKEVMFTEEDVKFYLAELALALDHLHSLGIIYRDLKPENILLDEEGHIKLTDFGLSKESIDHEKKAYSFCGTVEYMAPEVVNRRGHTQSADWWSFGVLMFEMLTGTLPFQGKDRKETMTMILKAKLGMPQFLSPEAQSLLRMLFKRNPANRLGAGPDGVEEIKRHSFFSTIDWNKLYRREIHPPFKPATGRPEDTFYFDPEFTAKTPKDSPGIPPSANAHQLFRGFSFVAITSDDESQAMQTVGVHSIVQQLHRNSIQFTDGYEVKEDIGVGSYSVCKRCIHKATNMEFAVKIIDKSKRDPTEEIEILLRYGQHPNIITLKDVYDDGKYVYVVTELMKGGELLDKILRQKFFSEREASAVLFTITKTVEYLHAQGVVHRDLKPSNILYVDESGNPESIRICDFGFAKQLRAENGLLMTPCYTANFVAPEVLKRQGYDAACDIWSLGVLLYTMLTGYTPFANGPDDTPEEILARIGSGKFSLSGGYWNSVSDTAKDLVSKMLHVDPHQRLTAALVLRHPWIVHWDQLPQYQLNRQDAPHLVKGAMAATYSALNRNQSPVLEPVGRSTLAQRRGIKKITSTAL
Outline: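 Each recombinant kinase of a 140-member panel was assayed radioisotopically in the presence of compound at 1 or 10 μM, and activity was expressed as percent remaining versus DMSO control (n=3, mean±SEM).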

humans = conditions: in vivo, 25 mg/kg; cited from earlier work

Row | SMILES | reduction of IVH-induced expression of pNKCC1 (pNKCC1) | decrease of hemispheric swelling [1] | decrease of infarct volume [1] | concentration inhibiting phosphorylation of SPAK Ser373, NKCC1 Thr203/207/212 and KCCs [2] | effect on SPAK/OSR1 Ser373/Ser325 and NKCC1 Thr203/Thr207/Thr212 phosphorylation ([2]; dose-dependent (1-10), hypotonic low Cl- and isotonic conditions) | % residual kinase activity (AMPK (hum); 1 μM) | % residual kinase activity (AMPK (hum); 10 μM) | remaining activity at 1 µM (RSK2; 1 μM) | remaining activity at 10 µM (RSK2; 10 μM) | adverse effects in humans (humans)
1 | Cc1cc(C(C#N)c2ccc(Cl)cc2)c(Cl)cc1NC(=O)c1cc(Cl)ccc1O (stereo not shown) [ZT-1a, 5-chloro-N-(5-chloro-4-((4-chlorophenyl)(cyano)methyl)-2-methylphenyl)-2-hydroxy-benzamide] | 69±4.3% | ~50% | ~50% | 3 µM | markedly inhibited | 126 ± 4% | 108 ± 4% | 116 ± 5% | 101 ± 3% | 
2 | Cc1cc(C(C#N)c2ccc(Cl)cc2)c(Cl)cc1NC(=O)c1cc(I)cc(I)c1O (stereo not shown) [Closantel] |  |  |  |  |  |  |  |  |  | weakness, visual impairment and blindness
